From patent US6677310B1, “Ring-expanded nucleosides and nucleotides” (Nabi, priority 1999, dated 2004)
Where two headings read alike, the source gives them in different places.

What was measured:
Epstein-Barr virus (EBV) = test: Antiviral test against EBV; assay type: cell-based
Description: (§1) These compounds were also tested for their effects on HIV (Weislow, O. , et al., J. Natl. Cancer Inst., 81:577-586, 1989), herpes simplex virus (HSV)-1, HSV-2, cytomegalovirus (CMV), Varicella Zoster virus (VZV) and Epstein-Barr virus (EBV) replication (National Institute of Allergy and Infectious Diseases (NIAID), NIH, Bethesda, Md.).

[1] = system: HBV proteins (HBsAg, HBcAg, HBeAg); test: HBV protein levels in 2.2.15 cells (semi-quantitative EIA); assay type: cell-based, Hepatitis B virus; conditions: 10 μM, day 9, 2.2.15 cells
HOP-92 = assay type: cell-based, human; conditions: HOP-92 (Non-Small Cell Lung Cancer), 48 h; for CC50: read-out: LC50 (the source's name)
SF-539 = test: SRB anti-cancer assay, CNS Cancer; assay type: cell-based, human; conditions: SF-539 (CNS Cancer), 48 h
HSV-2 = test: Antiviral test against HSV-2; assay type: cell-based
Description: as §1

U251 = test: SRB anti-cancer assay, CNS Cancer; assay type: cell-based, human; conditions: 48 h; for CC50: read-out: LC50 (the source's name)
HIV = test: Antiviral test against HIV; assay type: cell-based
Description: as §1

K-562 = test: SRB anti-cancer assay, Leukemia; assay type: cell-based, human; conditions: K-562 (Leukemia), 48 h
MOLT-4 = test: SRB anti-cancer assay, Leukemia; assay type: cell-based, human; conditions: MOLT-4 (Leukemia), 48 h
RXF 393 = test: SRB anti-cancer assay, Renal Cancer; assay type: cell-based, human; conditions: RXF 393 (Renal Cancer), 48 h; for CC50: read-out: LC50 (the source's name)
Hepatitis B virus (HBV) = test: Anti-HBV assay in 2.2.15 cells (virion DNA, HBV RI); assay type: cell-based; conditions: for HBV RI, percentage of control / Virion DNA, percentage of control: 10 μM, day 9, 2.2.15 cells
Description: The anti-HBV assays were performed according to the published protocol of Korba and Milman, (Korba, B. E.; Milman, G. Antiviral Res., 15, 217 1991), using cultures of 2.2.15 cells. In brief, the assay consisted of (a) seeding the chronically HBV-producing human liver cells (Acs et al. Proc. Nat. Acad. Sci., 84, 464 1987) into 24-well tissue culture plates, and growing to confluence, (b) adding test compounds daily for a continuous 9-day period, harvesting culture media after day 9 and (c) lysing treated cells 24 hours following day 9 of treatment for the analysis of extracellular virion DNA and intracellular HBV genomic forms.
Anti-HBV activity and the toxicity against confluent 2.2.15 cells were determined by the previously described procedure (Korba, B. E., et al. Antivir. Res., 19:55-70, 1992; Korba, B. E., et al. Antivir. Res., 15:217-228, 1991). Briefly, confluent cultures of HBV transfected 2.2.15 cells were maintained on either 96-well or 24-well flat-bottomed tissue culture plates in RPMI 1640 medium with 2% fetal bovine serum (FBS). The cells were treated with test compounds daily for nine consecutive days. The culture media were harvested on day 9 to quantify the amount of virion DNA. On day 10, the cells were lysed to quantify the amount of intracellular HBV replicative intermediates (RI). The quantification of virion DNA and the HBV RI were done by blot hybridization methods (Korba, B. E., et al. Antivir. Res., 19:55-70, 1992; Korba, B. E., et al. Antivir. Res., 15:217-228, 1991). Cellular toxicity against separate cultures of confluent 2.2.15 cells was measured after treatment with the compounds for nine days under identical culture conditions as those used for the antiviral assay (Korba, B. E., et al. Antivir. Res., 19:55-70, 1992). Uptake of neutral red dye by treated cells was compared with dye uptake by untreated control cells (Korba, B. E., et al. Antivir. Res., 19:55-70, 1992).

[2] = molecular target: T1, adenosine deaminase (Type IV) from bovine spleen (Bos taurus, UniProt P56658); test: Inhibition of adenosine deaminase (Example 9); assay type: biochemical; conditions: Lineweaver-Burk plot
T1 construct: adenosine deaminase (Type IV) from bovine spleen (a suspension in 3.2 M (NH4)2SO4, pH 6); from tissue; host or cells: bovine spleen
Source text: The concentration of inhibitor, the title compound, used for the present study ranged from 4.6×10^−5 to 9.2×10^−5 M. The enzyme concentration used for each of the assays was 0.0235 units/mL. As computed by the Lineweaver-Burk plot.

HT29 = test: SRB anti-cancer assay, Colon Cancer; assay type: cell-based, human; conditions: 48 h
TK-10 = test: SRB anti-cancer assay, Renal Cancer; assay type: cell-based, human; conditions: TK-10 (Renal Cancer), 48 h
LOX IMVI = test: SRB anti-cancer assay, Melanoma; assay type: cell-based, human; conditions: 48 h
SK-MEL-5 = test: SRB anti-cancer assay, Melanoma; assay type: cell-based, human; conditions: SK-MEL-5 (Melanoma), 48 h
SK-MEL-2 = test: SRB anti-cancer assay, Melanoma; assay type: cell-based, human; conditions: SK-MEL-2 (Melanoma), 48 h
IGROV1 = test: SRB anti-cancer assay, Ovarian Cancer; assay type: cell-based, human; conditions: 48 h
[3] = read-out: LC50 (the source's name)
[4] = extracellular HBV virion DNA, 10 fold inhibition, 9 days, read-out: EC90 Virion
[5] = extracellular HBV virion DNA, 9 days, read-out: EC50 Virion

T1 sequence (P56658 whole entry): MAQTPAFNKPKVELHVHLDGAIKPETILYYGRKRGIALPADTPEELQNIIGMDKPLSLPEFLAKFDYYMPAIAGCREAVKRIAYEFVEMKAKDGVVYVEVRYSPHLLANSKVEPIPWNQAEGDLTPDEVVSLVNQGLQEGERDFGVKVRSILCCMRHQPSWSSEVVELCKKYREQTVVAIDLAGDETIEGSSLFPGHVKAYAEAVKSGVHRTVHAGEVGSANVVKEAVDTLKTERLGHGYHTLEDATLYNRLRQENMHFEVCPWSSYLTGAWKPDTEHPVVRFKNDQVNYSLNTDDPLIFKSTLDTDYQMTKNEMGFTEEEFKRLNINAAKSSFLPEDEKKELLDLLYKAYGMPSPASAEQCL

N=c1[nH]c(=O)c2ncn([C@@H]3O[C@H](CO)[C@@H](O)[C@H]3O)c2c(=O)[nH]1 [Compound 14-1, 6-Imino-6H-1-β-D-ribofuranosyl-4,5,7,8-tetrahydroimidazo[4,5-e][1,3]diazepine-4,8-dione]
antiviral activity against EBV (Epstein-Barr virus (EBV)): no antiviral activity
HBcAg, percentage of control [1]: 75 ± 4%
HBeAg, percentage of control [1]: 50 ± 5 %
HBsAg, percentage of control [1]: 67 ± 6%
GI50 (HOP-92): > 100 µM
TGI (HOP-92): >100 µM
CC50 (HOP-92): > 100 µM
GI50 (SF-539): > 100 µM
TGI (SF-539): >100 µM
CC50 (SF-539; [3]): > 100 µM
antiviral activity against HSV-2 (HSV-2): no antiviral activity
GI50 (U251): > 100 µM
TGI (U251): >100 µM
CC50 (U251): > 100 µM
antiviral activity against HIV (HIV): no antiviral activity
GI50 (K-562): > 100 µM
TGI (K-562): >100 µM
CC50 (K-562; [3]): > 100 µM
GI50 (MOLT-4): > 100 µM
TGI (MOLT-4): >100 µM
CC50 (MOLT-4; [3]): > 100 µM
TGI (RXF 393): >100 µM
CC50 (RXF 393): > 100 µM
HBV RI, percentage of control (Hepatitis B virus (HBV)): 15 ± 2 %
Virion DNA, percentage of control (Hepatitis B virus (HBV)): 4 ± 1 %
EC90 (Hepatitis B virus (HBV); assay repeated three times, read-out: average EC90 for HBV virion inhibition): 1290 nM
EC90 (Hepatitis B virus (HBV); [4]): 989 ± 110 nM
EC50 (Hepatitis B virus (HBV); [5]): 131 nM
EC90 (Hepatitis B virus (HBV); intracellular HBV DNA replicative intermediates, 10 fold inhibition, 9 days, read-out: EC90 HBV RI): 7300 ± 700 nM
EC50 (Hepatitis B virus (HBV); intracellular HBV DNA replicative intermediates, 9 days, read-out: EC50 HBV RI): 604 nM
EC50 (Hepatitis B virus (HBV); transfected hepatoma cell line 2.2.15, Example 13, read-out: EC50 (anti-HBV activity)): 170 nM

N=c1nc(N)c2ncn([C@@H]3O[C@H](CO)[C@@H](O)[C@H]3O)c2c(N)n1 [Compound 14-2, 4,8-Diamino-6H-6-imino-1-β-D-ribofuranosylimidazo[4,5-e][1,3]diazepine]
antiviral activity against EBV (Epstein-Barr virus (EBV)): no antiviral activity
HBcAg, percentage of control [1]: 109 ± 6%
HBeAg, percentage of control [1]: 8 ± 3 %
HBsAg, percentage of control [1]: 108 ± 18%
GI50 (HOP-92): 19.2 µM
TGI (HOP-92): 40 µM
CC50 (HOP-92): 83.7 µM
antiviral activity against HSV-2 (HSV-2): no antiviral activity
GI50 (U251): 20.1 µM
TGI (U251): 45 µM
CC50 (U251): > 100 µM
mode of inhibition of adenosine deaminase [2]: competitive inhibitor
antiviral activity against HIV (HIV): no antiviral activity
GI50 (HT29): 10.4 µM
TGI (HT29): 35.7 µM
CC50 (HT29; [3]): > 100 µM
GI50 (TK-10): 15.1 µM
TGI (TK-10): 31.2 µM
CC50 (TK-10; [3]): 64.6 µM
GI50 (LOX IMVI): 7.16 µM
TGI (LOX IMVI): 21.3 µM
CC50 (LOX IMVI; [3]): 51.2 µM
GI50 (RXF 393): 7.51 µM
TGI (RXF 393): 25.6 µM
CC50 (RXF 393): 74.2 µM
GI50 (SK-MEL-5): 10.8 µM
TGI (SK-MEL-5): 23.5 µM
CC50 (SK-MEL-5; [3]): 50.9 µM
HBV RI, percentage of control (Hepatitis B virus (HBV)): 6 ± 1 %
Virion DNA, percentage of control (Hepatitis B virus (HBV)): 1 ± 1 %
EC90 (Hepatitis B virus (HBV); [4]): 4700 ± 500 nM
EC50 (Hepatitis B virus (HBV); [5]): 397 ± 30 nM
GI50 (SK-MEL-2): 15.4 µM
LC50 (SK-MEL-2): 76.9 µM
TGI (SK-MEL-2): 34.5 µM
GI50 (IGROV1): 14 µM
TGI (IGROV1): 30.5 µM
CC50 (IGROV1; [3]): 66.3 µM
